Results on two substances are retold here after patent US20260327263A1, “Anti-Bacterial Peptides” (priority 2023, published 2026).

“And” between values parts separate entries of the source, which are not always exact repeats. Identical values can stand only once. Where no end group is shown, it is not given here.

Data set [1] relates to bacteria. As to the kind of experiment: Comparison of wild-type peptide E1A to V8LQ19L (Table 14). An excerpt:
Active peptide sequences based on ENO3 exerting significant bactericidal antibiofilm properties, and relevant to chronic wound healing are previously disclosed. The previously disclosed antimicrobial peptides (AMPs) are longer (>22-residues) in length, which would be more costly in production.

Data set [2] can be described thus: Comparison of AMPs in clinical trial with V8LQ19L (Table 13). Particulars: ✓ / X.
The subject of data set [3] is critical and high priority pathogens (WHO). As to the kind of experiment: Antibacterial effect against WHO critical and high priority pathogens. The format is cell-based. Particulars: FIG. 10.
The nature of data set [4]: Hemolysis assay. The format is cell-based, human. Particulars: human, red blood cells; at respective MIC/MBC concentrations; melittin 3.125 μM = 100%. As to the method:
The hemolytic score of the peptide variants and pexiganan (SEQ ID NO: 54) are compared to a strong hemolytic peptide, melittin 12 as a control. […] The minimum peptide concentration corresponding to 10% hemolysis (minimal hemolysis concentration, HC) of E1AM2=50 μM, V8LQ19L=12.5 μM, V8LQ19L C-2=3.125 μM, and pexiganan=12.5 μM respectively. Readings of the melittin at 3.125 μM were normalised to 100%.
Examination of hemolytic activity of ultra-short peptides was performed by isolating the red blood cells (RBCs) from human blood samples by centrifugation (1000 g, 4° C., 10 min) and resuspension in 27 mL PBS. This washing step was repeated four times before the RBCs were diluted to a 10% (v/v) suspension. […] Hemolytic properties of E1AM2 and pexiganan were evaluated with melittin used as a positive control, and PBS as a negative control. The plates were incubated at 37° C., for 30 min and then centrifuged (1258 g, 4° C., 6 min). 75 μL of supernatant were transferred into a flat-bottom clear 96-well plate and the OD576 nm was read. Readings of the melittin sample at 3.125 μM were normalized to 100%.

In data set [5] the test system is fibroblasts (HFF-1). Description: Cell proliferation assay, HFF-1 fibroblasts. The format is cell-based. Particulars: 24 h.
The test system of data set [6] is human keratinocytes (HaCaT). As to the kind of experiment: Cell proliferation assay, HaCaT keratinocytes. The format is cell-based. The protocol:
Wound closure was compared with the untreated samples (circle, red highlight). For improved clarity, error bars have been omitted from this representation. […] Each value is the mean±SD (n=3). Statistical significance was assessed using ANOVA for multiple comparisons (Dunnett's multiple comparisons test). **** p<0.0001, *** p<0.001, ** p<0.01, *p<0.05, ns denotes nonsignificance, p >0.05.
CyQUANT™ Direct Cell Proliferation Assay (ThermoFisher Scientific, Catalogue) was performed as per manufacturer's instructions to determine the safety of the peptides to human keratinocytes. […] The fluorescence intensity and number of stained cells were determined using the LionHeart FX Automated Microscope (BioTek, VT, USA).

Data set [7] concerns Pseudomonas aeruginosa (PA). Description: Broth microdilution anti-bacterial assay (CLSI), Pseudomonas aeruginosa. The class given is cell-based, Pseudomonas aeruginosa (ATCC 14213). Particulars: PA; for MIC: overnight, 37° C., ≥99% inhibition; for MBC: ≥99% killing. A general note: In broth dilution the organism is exposed to a series of concentrations in liquid medium.
The subject of data set [8] is Pseudomonas aeruginosa PA CRM-9027. As to the kind of experiment: Broth microdilution, PA CRM-9027 (ear-eye infections). The format is cell-based, Pseudomonas aeruginosa (CRM-9027). Particulars: PA CRM-9027. As to the method: (§1) Bacteria strains involved in lung infection in cystic fibrosis patients (PA-BAA 2110) and ear-eye infections (PA-CRM 9027) are treated with exemplary variant peptides, such as E1AM2 and Q19L.
(§2) Examination of the potency of modified short peptides against PA and SA strains was performed by using the broth microdilution protocol from the Clinical and Laboratory Standards Institute (CLSI) guidelines (CLSI 2012) as described. Briefly, five freshly plated bacteria colonies were grown in cation adjusted MH2 broth (BD Biosciences) in a shaker incubator at 37° C., 220 RPM. Cells were grown to an optical density (OD600) of ~0.2 measured using a Microplate Spectrophotometer (Molecular Devices Spectra Max Plus). 100 μL of microbial culture containing ~5×10^5 CFU/mL of bacteria in the respective broths were introduced into each well containing 100 μL of peptides and incubated overnight at 37° C. Next, to check the bactericidal effects, 100 μL from each well was transferred and spread on sterile MH2 agar plates. The plates were incubated overnight at 37° C. and the number of colonies forming units (CFU) were calculated the following day. Readings of bacteria grown in media without any treatments were normalized to 100% as media control. For the mixed infection study, three freshly plated bacteria colonies each from PA, SA and ST plates were grown together in cation adjusted MH2 broth and proceeded as described above.

The test system of data set [9] is mixed bacterial infection (PA, SA and ST). Description: Broth microdilution, mixed bacterial infection. The format is cell-based. Conditions: mixed infection. As to the method: Chronic wounds mostly present mixed infections where numerous pathogens colonize together.
as §2

The test system of data set [10] is Pseudomonas aeruginosa PA BAA-2110. As to the kind of experiment: Broth microdilution, PA BAA-2110 (lung infection in cystic fibrosis). The class given is cell-based, Pseudomonas aeruginosa (BAA-2110). Particulars: PA BAA-2110. The protocol: as §1, §2

What is called MIC is the smallest concentration in the dilution series that meets the test's criterion for growth inhibition. Low readings indicate inhibition by little substance, high ones a need for much substance. The term MBC denotes the smallest concentration meeting the test's criterion for killing. Higher therefore signals less potent killing. Take KKLLKKWLKLSKKALKLALSL-NH2 [V8LQ19L]: in [1], the Cationicity result is “Cationic (bacterial membrane” and the “Mechanism of killing bacteria” value was “Membrane disintegration”. Moreover, the MIC/MBC in [1] (bacteria not named in Table 14) worked out at 1.56 µM. For the same substance, in data set [2], the Broad spectrum activity entry is on record as “✓” and the Healing support result is “✓”. For the same substance, the “antibacterial effect against WHO priority pathogens” value in [3] was “potent fast-acting, broad-spectrum antibacterial effect”. In [3] (compared to pexiganan and antibiotics), the “MIC values against WHO priority pathogens (in words)” value is “the lowest minimum inhibitory concentration (MIC) values”. In addition, the hemolysis at 0.5 h in data set [4] is roughly 0%. Besides, the HFF-1 proliferation entry in data set [5] (certain concentrations) is “enhanced proliferation”. Also, the “cytotoxicity to HFF-1” value in data set [5] (up to highest tested concentrations (peptide), 3% (H2O2)) is reported as “noncytotoxic”. The “Cytotoxicity at high concentration (100 μM)” value in [6] (100 μM, cell line not named in Table 15) was “Non-cytotoxic”. Further, in [6] (24 h, up to highest tested concentrations (peptide), 3% (H2O2)), the “cytotoxicity to HaCaT” value is listed as “noncytotoxic”. In addition, in data set [7], the MIC came to 1.56 µM and the MBC is 1.56 µM. Also, in data set [7] (listed as VBLQ19L), the MIC is 1.58 µM; the MBC is 1.58 µM and 1.56 µM.
For “E1AM2: untagged (E1AM2), KKLLKKWVKLSKKALKLAQSL”, the MBC was 3.125 µM in data set [8], 6.25 µM in [9] and 6.25 µM in data set [10]. Also, the MIC in data set [8] and in data set [10] was 3.125 µM each time.
